# Entries after “also recorded” stand apart in the source; their conditions may differ.
# Legend:
# V2R E184A mutant = V2R E184A mutant (Homo sapiens, UniProt P30518, E184A); type: binding
# V2R [1] = conditions: cited from earlier work
# V2R Q291A mutant = V2R Q291A mutant (Homo sapiens, UniProt P30518, Q291A); type: binding
# V2R K116A mutant = V2R K116A mutant (Homo sapiens, UniProt P30518, K116A); type: binding
# V2R I209A mutant = V2R I209A mutant (Homo sapiens, UniProt P30518, I209A); type: binding
# V2R Q174A mutant = V2R Q174A mutant (Homo sapiens, UniProt P30518, Q174A); type: binding
# V2R F287A mutant = V2R F287A mutant (Homo sapiens, UniProt P30518, F287A); type: binding
# V2R [2] = conditions: cited from earlier work; remark: listed apart in the source
# V2R S315A mutant = V2R S315A mutant (Homo sapiens, UniProt P30518, S315A); type: binding
# V2R Q119A mutant = V2R Q119A mutant (Homo sapiens, UniProt P30518, Q119A); type: binding
# V2R D103A mutant = V2R D103A mutant (Homo sapiens, UniProt P30518, D103A); type: binding
# [3] = in vivo; cited from earlier work
# V2R R104A mutant = V2R R104A mutant (Homo sapiens, UniProt P30518, R104A); type: binding
# OTR = conditions: cited from earlier work
# V1aR = conditions: cited from earlier work
smiles,measurement,setting,value
"Cc1ccccc1C(=O)Nc1ccc(C(=O)N2CCCC(O)c3cc(Cl)ccc32)c(C)c1 (centres unmarked) [TVP, 7-Chloro-5-hydroxy-1-[2-methyl-4-(2-methylbenzoylamino)benzoyl]-2,3,4,5-tetrahydro-1 H -1-benzazepine]",effect of mutation (loss or gain vs WT),V2R E184A mutant,less than 5 fold
same,effect of mutation on affinity,V2R E184A mutant,very limited effect or were without effect
same,affinity for V2R,V2R [1],high affinity
same,effect of mutation (loss or gain vs WT),V2R Q291A mutant,less than 5 fold
same,effect of mutation on affinity,V2R Q291A mutant,moderate change in binding affinity
same,effect of mutation on affinity,V2R K116A mutant,"moderate change in binding affinity; also recorded: less pronounced regarding TVP affinity, but was significant"
same,effect of mutation (loss or gain vs WT),V2R I209A mutant,less than 5 fold
same,effect of mutation on affinity,V2R I209A mutant,very limited effect or were without effect
same,effect of mutation on affinity,V2R Q174A mutant,significant decrease in TVP affinity
same,effect of mutation on affinity,V2R F287A mutant,moderate change in binding affinity
same,efficacy toward the Gs/cAMP pathway,V2R [2],inverse agonist
same,inhibition of V2R-dependent signaling pathways,V2R [2],inhibit V2R-dependent signaling pathways
same,effect of mutation (loss or gain vs WT),V2R S315A mutant,less than 5 fold
same,effect of mutation on affinity,V2R S315A mutant,very limited effect or were without effect
same,effect of mutation on affinity,V2R Q119A mutant,significant gain in affinity
same,effect of mutation (loss or gain vs WT),V2R D103A mutant,less than 5 fold
same,liver injury,[3],serious and potentially fatal liver injury
same,urine volume,[3],increasing the amount of urine volume
same,effect of mutation (loss or gain vs WT),V2R R104A mutant,less than 5 fold
same,effect of mutation on affinity,V2R R104A mutant,very limited effect or were without effect
CC[C@H](C)[C@@H]1C(=O)N[C@H](C2Cc3ccccc3C2)C(=O)N1[C@@H](C(=O)N1CCOCC1)c1coc(C)n1 [Retosiban],OTR antagonism,OTR,potent OTR-selective non-peptide antagonist
Cc1nc2c([nH]1)-c1ccccc1N(C(=O)c1ccc(NC(=O)c3ccccc3-c3ccccc3)cc1)CC2 [Conivaptan],selectivity to V2R,V2R [1],not selective to V2R
same,affinity for V1aR,V1aR,high affinity
